We go through 4 molecules from patent US20230345975A1, “COMPOSITIONS AND METHODS OF PRESERVING MEAT SUBSTITUTES” (Wisconsin Alumni Research Foundation, priority 2016, published 2023).

“Also recorded” adds a separate entry of the source. Where two headings read alike, the source gives them in different places.

For data set [1] the following is noted: cited from earlier work.
The conditions of data set [2]: cited from earlier work. The source holds these as a separate data set.
Data set [3] concerns the target plant Hb (soybean hemoglobin; Lba) in meat analog (Glycine max, UniProt P02238). As to the kind of experiment: Color stability of meat analog during refrigerated light display. The procedure: FIG. 1—Color stability of meat analog. Treatments: Water (W); 2.5 mmol/kg tissue Niacin (NA). Packaging: High oxygen package (80% O2, 20% CO2). Water content: 3% water capacity. Days under light (˜300 ft): 4 days under light display at 1-3° C.
FIG. 3—Effect of high oxygen during packaging. […] W-water added. All samples were stored at 1-3° C. during light display (300 foot candles).
The niacin can also be added to the solid plant protein/plant fat matrix already containing the added plant Hb. There is approximately 150 μmol of plant heme/kg meat analog. Therefore, a targeted final concentration of niacin would be 150 μmol/kg meat analog, which is equivalent to 18.5 mg niacin per kg meat analog.
Niacin is added to the meat analog already containing the plant Hb (soybean hemoglobin; Lba) and the product is stored under lights in high oxygen packaging during 4 days of refrigerated storage.

In a further data set the target is soybean Hb (Lba) (Glycine max, UniProt P02238). Description: Redness (a-value) of Lba solutions after exposure to 35 fc of light for 4 days. Particulars: for Redness (a-value) at day 4: 35 fc light, 4 days, main effect over pH. The procedure:
FIG. 2—Effect of pH and different molar ratios of niacin to soybean Hb on the redness of Lba solutions. Measurement after exposure to 35 fc of light for 4 days
100 grams of meat analog containing a 3:1 dose of niacin would provide 5.9 mg niacin; a 6:1 dose would provide 11.8 mg niacin.

As usually defined, the pKa is the pH at which an ionisable group is half protonated.

Chain of plant Hb (soybean hemoglobin; Lba) in meat analog (P02238 whole entry): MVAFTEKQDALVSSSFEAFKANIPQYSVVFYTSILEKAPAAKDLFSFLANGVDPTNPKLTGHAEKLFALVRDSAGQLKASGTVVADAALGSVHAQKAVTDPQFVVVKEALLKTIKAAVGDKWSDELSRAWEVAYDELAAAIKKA
Chain of soybean Hb (Lba) (P02238 whole entry): as above

`N[C@@H](Cc1c[nH]cn1)C(=O)O` [histidine, Histidine]: in data set [1] (buffer), the pKa is on record as roughly 6. For the same molecule, the “pKa of the conjugate acid (protonated form) of the imidazole side chain” value in data set [1] was “approximately 6.0”.
As for `O=C(O)c1cccnc1` [niacin, nicotinic acid], the “Tolerable Upper Intake Level (UL)” value is on record as 10 mg/day in data set [2] (European Food Safety Authority); 35 mg/day in data set [2] (Food and Nutrition Board of the U.S. Institute of Medicine). Also, the “color retention of meat analog” value in data set [3] (2.5 mmol/kg niacin, high oxygen package (80% O2, 20% CO2), 4 days under light display at 1-3° C.) is listed as “retains a superior color; also recorded: retain a pink color for four days”. Further, the “time for which meat analog maintained color” value in data set [3] (storage entirely in 80% O2/20% CO2, light display 300 foot candles, 1-3° C.) is no more than 11 days. In addition, the “ability to stabilize color in meat analog after change of packaging” value in data set [3] (transferred from 80% O2/20% CO2 at day 4 to air-permeable overwrap, assessed at day 8) is “lost”. Further, on soybean Hb (Lba) (1:1 (niacin:Lba) ratio), the “stabilization of red color of Lba solution versus control with no niacin” value is “stabilized red color better than control”. In addition, the “Redness (a-value) at day 4” value on soybean Hb (Lba) (niacin:Lba molar ratio 1:1) turned out to be 4.10c; at soybean Hb (Lba) (niacin:Lba molar ratio 3:1), 5.35b; on soybean Hb (Lba) (niacin:Lba molar ratio 6:1), 5.79a.
Take `O=C1O[C@H]([C@@H](O)CO)C(O)=C1O` [Ascorbic acid]: the “color stabilization of meat analog” value in data set [3] (high oxygen packaging 80% O2/20% CO2, light display 300 foot candles, 1-3° C.) was “did not stabilize color”.
In the case of Imidazole, the “pKa as an acid” value in data set [1] (acidic proton on N-1) is given as 14.5. The “pKa of the conjugate acid (pKBH+)” value in data set [1] (as a base, basic site N-3) is “approximately 7”.
